This is an account of results in US12662479B2 (Foghorn Therapeutics Inc., priority 2020, dated 2026).

The target in test [1] is T1, HiBit-BRM fusion protein (Homo sapiens, UniProt P51531).
T1 construct: expressed in transfected cells
Briefly: HiBiT-BRM cell-based degradation assay (Nano-Glo HiBiT Lytic Detection, 24 h). The following applies: HeLa cells expressing HiBiT-BRM; for DC50: read-out: BRM HiBit Degradation IC50; for BRM HiBit Degradation Maximum measured: top dose 30 μM. How it is done:
Procedure: A stable HeLa cell line expressing HiBiT-BRM was generated. On day 0, 5000 cells were seeded in 40 μL of media into each well of 384-well cell culture plates. On day 1, cells were treated with 120 nL DMSO or 120 nL of 3-fold serially DMSO-diluted compounds (10 points in duplicate with 30 μM as final top dose). Subsequently plates were incubated for 24 h in a standard tissue culture incubator and equilibrated at room temperature for 15 minutes. Nano-Glo HiBiT Lytic Detection System (Promega N3050) reagent was freshly prepared and 20 ul was added to each well. Upon addition of this LgBit-containing reagent, the HiBiT and LgBiT proteins associate to form the luminescent NanoBiT luciferase. The plates were shaken for 10 minutes at room temperature and the bioluminescence read using an EnVision plate reader (PerkinElmer).
(§1) The degradation % was calculated using the following formula: % degradation=100%−100%×(LumSample−LumLC)/(LumHC−LumLC). DMSO treated cells are employed as High Control (HC) and 2 μM of a known BRM/BRG1 degrader standard treated cells are employed as Low Control (LC).
For orientation: The HiBiT peptide binds its large partner to form an active luciferase.

In test [2] the target is T2, HiBit-BRG1 fusion protein (Homo sapiens, UniProt P51532).
T2 construct: expressed in transfected cells
Briefly: HiBiT-BRG1 cell-based degradation assay (Nano-Glo HiBiT Lytic Detection, 24 h). The following applies: HeLa cells expressing HiBit-BRG1 and LgBit; for DC50: read-out: BRG1 HiBit Degradation IC50; for Dmax: HeLa, top dose 30 μM, read-out: BRG1 HiBit Degradation Maximum measured. The method, then: Procedure: A stable HeLa cell line expressing HiBiT-BRM was generated. On day 0, 5000 cells were seeded in 40 μL of media into each well of 384-well cell culture plates. […] Nano-Glo HiBiT Lytic Detection System (Promega N3050) reagent was freshly prepared and 20 ul was added to each well. Upon addition of this LgBit-containing reagent, the HiBiT and LgBiT proteins associate to form the luminescent NanoBiT luciferase. The plates were shaken for 10 minutes at room temperature and the bioluminescence read using an EnVision plate reader (PerkinElmer).
For measurement of BRG1 degradation, a stable HeLa cell line expressing HiBit-BRG1 and LgBit was generated. The same protocol as above was then followed.
as §1

T1 sequence (P51531 whole entry, the tested form may be a part): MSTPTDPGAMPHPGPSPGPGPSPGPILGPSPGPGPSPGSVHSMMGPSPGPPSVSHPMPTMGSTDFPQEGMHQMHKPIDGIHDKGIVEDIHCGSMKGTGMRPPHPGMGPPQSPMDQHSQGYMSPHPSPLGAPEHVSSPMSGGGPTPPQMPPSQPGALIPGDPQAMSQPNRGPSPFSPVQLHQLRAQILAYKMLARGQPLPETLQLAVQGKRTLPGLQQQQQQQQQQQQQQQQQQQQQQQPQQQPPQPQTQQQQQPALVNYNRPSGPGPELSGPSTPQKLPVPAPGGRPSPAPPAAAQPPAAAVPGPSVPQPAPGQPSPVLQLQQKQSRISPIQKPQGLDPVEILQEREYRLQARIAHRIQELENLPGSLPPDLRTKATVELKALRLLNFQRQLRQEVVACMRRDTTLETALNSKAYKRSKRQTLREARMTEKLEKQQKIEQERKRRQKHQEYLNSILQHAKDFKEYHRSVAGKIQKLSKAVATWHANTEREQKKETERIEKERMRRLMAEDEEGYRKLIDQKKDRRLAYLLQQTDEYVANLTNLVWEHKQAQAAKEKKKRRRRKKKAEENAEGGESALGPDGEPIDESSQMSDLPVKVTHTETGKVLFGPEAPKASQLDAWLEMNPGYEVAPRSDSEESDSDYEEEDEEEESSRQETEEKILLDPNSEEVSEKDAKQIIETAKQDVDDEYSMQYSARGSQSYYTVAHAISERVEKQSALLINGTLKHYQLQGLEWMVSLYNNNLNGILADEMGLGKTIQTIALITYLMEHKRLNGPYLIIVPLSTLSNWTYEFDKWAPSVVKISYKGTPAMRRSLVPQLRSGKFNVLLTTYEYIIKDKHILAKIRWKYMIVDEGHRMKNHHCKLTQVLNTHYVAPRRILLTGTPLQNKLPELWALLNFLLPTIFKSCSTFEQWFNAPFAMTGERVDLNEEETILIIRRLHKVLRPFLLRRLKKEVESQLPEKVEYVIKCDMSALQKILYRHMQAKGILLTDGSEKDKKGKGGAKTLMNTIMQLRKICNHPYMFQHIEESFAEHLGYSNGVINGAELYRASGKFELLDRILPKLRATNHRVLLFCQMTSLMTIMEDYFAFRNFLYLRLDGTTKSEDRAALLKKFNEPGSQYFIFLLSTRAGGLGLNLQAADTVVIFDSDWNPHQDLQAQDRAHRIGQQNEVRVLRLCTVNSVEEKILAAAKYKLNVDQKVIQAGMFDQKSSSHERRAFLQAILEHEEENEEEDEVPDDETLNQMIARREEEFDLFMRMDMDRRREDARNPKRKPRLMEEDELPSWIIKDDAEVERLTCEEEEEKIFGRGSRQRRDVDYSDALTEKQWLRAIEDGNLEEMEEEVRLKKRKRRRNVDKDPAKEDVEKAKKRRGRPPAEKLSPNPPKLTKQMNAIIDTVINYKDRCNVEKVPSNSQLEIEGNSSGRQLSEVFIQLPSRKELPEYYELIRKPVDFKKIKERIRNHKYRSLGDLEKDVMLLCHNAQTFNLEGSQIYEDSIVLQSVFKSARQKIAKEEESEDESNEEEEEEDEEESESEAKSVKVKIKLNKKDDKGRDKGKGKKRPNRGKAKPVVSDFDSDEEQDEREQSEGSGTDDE
T2 sequence (P51532 whole entry, the tested form may be a part): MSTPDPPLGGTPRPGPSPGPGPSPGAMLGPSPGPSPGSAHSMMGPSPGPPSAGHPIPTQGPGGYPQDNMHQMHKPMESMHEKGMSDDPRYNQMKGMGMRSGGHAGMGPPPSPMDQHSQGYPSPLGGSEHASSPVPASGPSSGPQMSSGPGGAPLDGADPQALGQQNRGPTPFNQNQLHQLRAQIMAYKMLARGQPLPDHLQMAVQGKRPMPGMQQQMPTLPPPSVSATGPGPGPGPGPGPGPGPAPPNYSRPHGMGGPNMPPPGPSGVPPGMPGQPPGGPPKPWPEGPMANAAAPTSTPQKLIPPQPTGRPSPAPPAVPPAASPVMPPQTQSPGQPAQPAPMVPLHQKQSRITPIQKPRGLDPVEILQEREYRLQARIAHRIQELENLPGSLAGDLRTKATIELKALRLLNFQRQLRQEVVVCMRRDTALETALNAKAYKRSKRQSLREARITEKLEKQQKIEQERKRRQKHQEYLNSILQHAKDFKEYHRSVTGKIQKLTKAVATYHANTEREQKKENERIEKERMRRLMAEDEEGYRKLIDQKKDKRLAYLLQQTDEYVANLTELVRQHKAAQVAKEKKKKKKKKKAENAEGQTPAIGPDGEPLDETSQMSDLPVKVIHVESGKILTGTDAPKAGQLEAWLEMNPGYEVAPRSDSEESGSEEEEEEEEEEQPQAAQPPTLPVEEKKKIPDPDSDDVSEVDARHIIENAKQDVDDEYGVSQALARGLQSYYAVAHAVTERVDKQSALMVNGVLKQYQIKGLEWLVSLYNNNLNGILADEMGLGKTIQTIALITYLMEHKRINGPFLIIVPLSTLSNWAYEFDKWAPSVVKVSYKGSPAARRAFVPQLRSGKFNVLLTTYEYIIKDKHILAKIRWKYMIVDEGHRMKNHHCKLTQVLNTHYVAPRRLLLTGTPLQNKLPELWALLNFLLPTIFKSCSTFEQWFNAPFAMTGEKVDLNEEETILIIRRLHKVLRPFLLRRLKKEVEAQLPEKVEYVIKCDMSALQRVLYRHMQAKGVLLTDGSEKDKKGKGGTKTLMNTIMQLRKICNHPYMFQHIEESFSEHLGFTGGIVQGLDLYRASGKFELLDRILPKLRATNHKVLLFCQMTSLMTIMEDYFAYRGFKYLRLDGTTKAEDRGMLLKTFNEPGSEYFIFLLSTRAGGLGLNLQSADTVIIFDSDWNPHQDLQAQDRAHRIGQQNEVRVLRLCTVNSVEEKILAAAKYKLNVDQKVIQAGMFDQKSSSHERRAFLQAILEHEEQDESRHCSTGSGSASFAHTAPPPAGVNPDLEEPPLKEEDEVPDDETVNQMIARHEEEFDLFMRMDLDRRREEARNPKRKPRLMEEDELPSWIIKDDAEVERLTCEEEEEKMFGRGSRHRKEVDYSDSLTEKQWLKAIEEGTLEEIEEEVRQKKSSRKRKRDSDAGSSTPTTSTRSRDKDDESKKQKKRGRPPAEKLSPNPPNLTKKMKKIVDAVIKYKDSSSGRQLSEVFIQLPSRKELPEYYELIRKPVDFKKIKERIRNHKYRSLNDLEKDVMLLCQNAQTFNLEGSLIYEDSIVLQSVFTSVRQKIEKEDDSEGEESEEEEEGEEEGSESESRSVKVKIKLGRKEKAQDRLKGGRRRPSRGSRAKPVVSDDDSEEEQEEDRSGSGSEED

On to `CN1C(=O)CCC(N2C(=O)c3cccc(OCC(=O)NCCCCCCCCNC(=O)C4(c5cc(-c6cccc(-c7csc(NC(=O)CNC(=O)c8ccn(S(C)(=O)=O)c8)n7)c6)ccn5)CC4)c3C2=O)C1=O` (stereo not drawn) [Compound 129, N-[2-[[4-[3-[2-[1-[8-[[2-[2-(1-methyl-2,6-dioxo-3-piperidyl)-1,3-dioxo-isoindolin-4-yl]oxyacetyl]amino]octylcarbamoyl]cyclopropyl]-4-pyridyl]phenyl]thiazol-2-yl]amino]-2-oxo-ethyl]-1-methylsulfonyl-pyrrole-3-carboxamide], for which, in test [1], the DC50 was greater than 10 µM and the “BRM HiBit Degradation Maximum measured” value is recorded as “C (‘C’ = Maximum degradation <50%)”. In test [2], the DC50 is greater than 10 µM and the Dmax is less than 50%.
As for `CS(=O)(=O)n1ccc(C(=O)NCC(=O)Nc2nc(-c3cccc(-c4cccc(CNC(=O)CCCCCCCCCCNc5ccc6c(c5)C(=O)N(C5CCC(=O)NC5=O)C6=O)c4)c3)cs2)c1` (stereo not drawn) [Compound 52], in test [1], the DC50 is greater than 10 µM and the “BRM HiBit Degradation Maximum measured” value is given as “C (‘C’ = Maximum degradation <50%)”. Besides, in test [2], the DC50 is 0.1 to 1 µM and the Dmax is 50 to 75%.
In the case of `CS(=O)(=O)n1ccc(C(=O)NCC(=O)Nc2nc(-c3cccc(-c4ccnc(C5(C(=O)NCCCC#Cc6cccc7c6C(=O)N(C6CCC(=O)NC6=O)C7=O)CC5)c4)c3)cs2)c1` (stereo not drawn) [Compound 152, N-[5-[2-(2,6-dioxopiperidin-3-yl)-1,3-dioxoisoindol-4-yl]pent-4-yn-1-yl]-1-[4-[3-(2-[2-[(1-methanesulfonylpyrrol-3-yl)formamido]acetamido]-1,3-thiazol-4-yl)phenyl]pyridin-2-yl]cyclopropane-1-carboxamide], in test [1], the DC50 is greater than 10 µM and the “BRM HiBit Degradation Maximum measured” value was “C (‘C’ = Maximum degradation <50%)”. For the same compound, in test [2], the DC50 was greater than 10 µM and the Dmax was less than 50%.
As for `CS(=O)(=O)n1ccc(C(=O)NCC(=O)Nc2nc(-c3cccc(-c4ccnc(C5(C(=O)N6CCC7(CC6)CC(Oc6ccc8c(c6)C(=O)N(C6CCC(=O)NC6=O)C8=O)C7)CC5)c4)c3)cs2)c1` (stereo not drawn) [Compound 151, N-[4-(3-[2-[1-(2-[[2-(2,6-dioxopiperidin-3-yl)-1,3-dioxoisoindol-5-yl]oxy]-7-azaspiro[3.5]nonane-7-carbonyl)cyclopropyl]pyridin-4-yl]phenyl)-1,3-thiazol-2-yl]-2-[(1-methanesulfonylpyrrol-3-yl)formamido]acetamide], in test [1], the DC50 was greater than 10 µM and the “BRM HiBit Degradation Maximum measured” value is reported as “C (‘C’ = Maximum degradation <50%)”. In test [2], the DC50 was less than 0.1 µM and the Dmax was 50 to 75%.
Turning to `CS(=O)(=O)n1ccc(C(=O)N[C@@H](COCc2ccc(C(=O)N3CCN(CCOc4ccc5c(c4)C(=O)N(C4CCC(=O)NC4=O)C5=O)CC3)cc2)C(=O)Nc2nc(-c3ccccc3)cs2)c1` (stereo partly drawn) [Compound 191, (2S)-3-([4-[4-(2-[[2-(2,6-dioxopiperidin-3-yl)-1,3-dioxoisoindol-5-yl]oxy]ethyl)piperazine-1-carbonyl]phenyl]methoxy)-2-[(1-methanesulfonylpyrrol-3-yl)formamido]-N-(4-phenyl-1,3-thiazol-2-yl)propanamide; formic acid], in test [1], the DC50 is greater than 10 µM and the “BRM HiBit Degradation Maximum measured” value is recorded as “C (‘C’ = Maximum degradation <50%)”. In test [2], the DC50 is greater than 10 µM and the Dmax was less than 50%.
Turning to `CS(=O)(=O)n1ccc(C(=O)NCC(=O)Nc2nc(-c3cccc(-c4cccc(CNC(=O)CCOCCOCCOc5ccc6c(c5)C(=O)N(C5CCC(=O)NC5=O)C6=O)c4)c3)cs2)c1` (stereo not drawn) [Compound 55, N-[2-[[4-[3-[3-[[3-[2-[2-[2-(2,6-dioxo-3-piperidyl)-1,3-dioxo-isoindolin-5-yl]oxyethoxy]ethoxy]propanoylamino]-methyl]phenyl]phenyl]thiazol-2-yl]amino]-2-oxo-ethyl]-1-methylsulfonyl-pyrrole-3-carboxamide], in test [1], the DC50 was 0.1 to 1 µM; the “BRM HiBit Degradation Maximum measured” value was “B (‘B’ = Maximum degradation ≥50% and ≤75%)”. In addition, in test [2], the DC50 fell in the range of 0.1 to 1 µM and the Dmax fell in the range of 50 to 75%.
With `CS(=O)(=O)n1ccc(C(=O)N[C@@H](COCc2ccc(C(=O)N3CC(COc4cccc5c4C(=O)N(C4CCC(=O)NC4=O)C5=O)C3)cc2)C(=O)Nc2nc(-c3ccccc3)cs2)c1` (stereo partly drawn) [Compound 197, (2S)-3-([4-[3-([[2-(2,6-dioxopiperidin-3-yl)-1,3-dioxoisoindol-4-yl]oxy]methyl)azetidine-1-carbonyl]phenyl]methoxy)-2-[(1-methanesulfonylpyrrol-3-yl)formamido]-N-(4-phenyl-1,3-thiazol-2-yl)propanamide], in test [1], the DC50 was greater than 10 µM and the “BRM HiBit Degradation Maximum measured” value is “C (‘C’ = Maximum degradation <50%)”. Also, in test [2], the DC50 is greater than 10 µM and the Dmax is less than 50%.
On to `CS(=O)(=O)n1ccc(C(=O)N[C@@H](CCOCCCC(=O)N2CC3(CCN(CCCNc4ccc5c(c4)C(=O)N(C4CCC(=O)NC4=O)C5=O)CC3)C2)C(=O)Nc2nc(-c3ccccc3)cs2)c1` (stereo partly drawn) [Compound 222, (2S)-4-[4-[7-(3-[[2-(2,6-dioxopiperidin-3-yl)-1,3-dioxoisoindol-5-yl]amino]propyl)-2,7-diazaspiro[3.5]nonan-2-yl]-4-oxobutoxy]-2-[(1-methanesulfonylpyrrol-3-yl)formamido]-N-(4-phenyl-1,3-thiazol-2-yl)butanamide; formic acid], for which, in test [1], the DC50 was greater than 10 µM and the “BRM HiBit Degradation Maximum measured” value is “C (‘C’ = Maximum degradation <50%)”. In test [2], the DC50 was greater than 10 µM and the Dmax is less than 50%.
As for `CS(=O)(=O)n1ccc(C(=O)NCC(=O)Nc2nc(-c3cccc(-c4cccc(CNC(=O)CCCOc5cccc6c5C(=O)N(C5CCC(=O)NC5=O)C6=O)c4)c3)cs2)c1` (stereo not drawn) [Compound 30], in test [1], the DC50 was greater than 10 µM and the “BRM HiBit Degradation Maximum measured” value is given as “C (‘C’ = Maximum degradation <50%)”. In test [2], the DC50 is greater than 10 µM and the Dmax was less than 50%.
With `CS(=O)(=O)n1ccc(C(=O)NCC(=O)Nc2nc(-c3cccc(-c4ccnc(C5(C(=O)N6CC(CN7CCN(c8ccc9c(c8)C(=O)N(C8CCC(=O)NC8=O)C9=O)CC7)C6)CC5)c4)c3)cs2)c1` (stereo not drawn) [Compound 156, N-[4-[3-(2-[1-[3-([4-[2-(2,6-dioxopiperidin-3-yl)-1,3-dioxoisoindol-5-yl]piperazin-1-yl]methyl)azetidine-1-carbonyl]cyclopropyl]pyridin-4-yl)phenyl]-1,3-thiazol-2-yl]-2-[(1-methanesulfonylpyrrol-3-yl)formamido]acetamide], in test [1], the DC50 was in the range of 0.1 to 1 µM and the “BRM HiBit Degradation Maximum measured” value is listed as “A (‘A’ = Maximum degradation >75%)”. In test [2], the DC50 lay in the range of 0.1 to 1 µM and the Dmax is greater than 75%.
In the case of `CS(=O)(=O)n1ccc(C(=O)NCC(=O)Nc2nc(-c3cccc(-c4ccnc(N5CCN(C(=O)C6CC6CNC(=O)COc6ccc7c(c6)C(=O)N(C6CCC(=O)NC6=O)C7=O)CC5)c4)c3)cs2)c1` (stereo not drawn) [Compound 39, N-[2-[[4-[3-[2-[4-[2-[[[2-[2-(2,6-dioxo-3-piperidyl)-1,3-dioxo-isoindolin-5-yl]oxyacetyl]amino]methyl]cyclopropanecarbonyl]piperazin-1-yl]-4-pyridyl]phenyl]thiazol-2-yl]amino]-2-oxo-ethyl]-1-methylsulfonyl-pyrrole-3-carboxamide], in test [1], the DC50 is greater than 10 µM and the “BRM HiBit Degradation Maximum measured” value is reported as “C (‘C’ = Maximum degradation <50%)”. In test [2], the DC50 is greater than 10 µM and the Dmax was less than 50%.
For `Cc1ncsc1-c1ccc(CNC(=O)[C@@H]2C[C@@H](O)CN2C(=O)[C@@H](NC(=O)CCCCCNC(=O)CCCOC[C@H](NC(=O)c2ccn(S(C)(=O)=O)c2)C(=O)Nc2nc(-c3ccccc3)cs2)C(C)(C)C)cc1` [Compound 226, (2S,4R)-4-hydroxy-1-[(2S)-2-(6-[4-[(2S)-2-[(1-methanesulfonylpyrrol-3-yl)formamido]-2-[(4-phenyl-1,3-thiazol-2-yl)carbamoyl]ethoxy]butanamido]hexanamido)-3,3-dimethylbutanoyl]-N-[[4-(4-methyl-1,3-thiazol-5-yl)phenyl]methyl]pyrrolidine-2-carboxamide], in test [1], the DC50 is greater than 10 µM and the “BRM HiBit Degradation Maximum measured” value is “C (‘C’ = Maximum degradation <50%)”. Also, in test [2], the DC50 is greater than 10 µM and the Dmax was less than 50%.
